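Compound exposure: 48 hours, 5 concentrations, 96-well plates. GI50 marks 50% less growth. Definition used: TGI = concentration required for complete inhibition of growth.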
Tests used:
Experiment in all cases: inhibition of tumour cell growth, NCI panel, 48 h
HS 578T breast = test system: HS 578T breast
HOP-92 NSCLC = test system: HOP-92 NSCLC
SR leukemia = test system: SR leukemia
HOP-62 NSCLC = test system: HOP-62 NSCLC
SNB-75 CNS = test system: SNB-75 CNS
COLO 205 colon = test system: COLO 205 colon
786-0 renal = test system: 786-0 renal
M19-MEL melanoma = test system: M19-MEL melanoma
HOP-18 NSCLC = test system: HOP-18 NSCLC
DMS 273 small cell lung = test system: DMS 273 small cell lung
XF 498 CNS = test system: XF 498 CNS
SNB-78 CNS = test system: SNB-78 CNS
LXFL 529 NSCLC = test system: LXFL 529 NSCLC
DMS 114 small cell lung = test system: DMS 114 small cell lung

| SMILES | TGI (HS 578T breast) | TGI (HOP-92 NSCLC) | TGI (SR leukemia) | TGI (HOP-62 NSCLC) | TGI (SNB-75 CNS) | TGI (COLO 205 colon) | TGI (786-0 renal) | GI50 (HOP-62 NSCLC) | TGI (M19-MEL melanoma) | TGI (HOP-18 NSCLC) | TGI (DMS 273 small cell lung) | TGI (XF 498 CNS) | TGI (SNB-78 CNS) | TGI (LXFL 529 NSCLC) | TGI (DMS 114 small cell lung) | GI50 (HS 578T breast) | GI50 (HOP-92 NSCLC) | GI50 (SNB-75 CNS) | GI50 (COLO 205 colon) | GI50 (SR leukemia) |
| --- | --- | --- | --- | --- | --- | --- | --- | --- | --- | --- | --- | --- | --- | --- | --- | --- | --- | --- | --- | --- |
| c1ccc2sc(SCN(C3CCCCC3)C3CCCCC3)nc2c1 | > 100 µM | > 100 µM | > 100 µM | > 100 µM |  |  |  |  |  |  |  |  |  |  |  |  |  |  |  |  |
| COc1cc(S(=O)(=O)Nc2nc(-c3ccc(N)cc3)cs2)ccc1Cl | > 100 µM | > 100 µM | > 100 µM | > 100 µM | > 100 µM | > 100 µM | > 100 µM |  |  |  |  |  |  |  |  |  |  |  |  |  |
| COc1ccc(OC)c(C#Cc2ccc(OC)c(C(=O)NCCc3ccc(F)cc3)c2)c1 | > 100 µM |  | > 100 µM | > 100 µM |  | > 100 µM | > 100 µM | 4.94 µM |  |  |  |  |  |  |  |  |  |  |  |  |
| Cc1cc(N(CCCCl)CCCCl)ccc1C=Nc1cccc(Cl)c1 | 36.2 µM |  | 24 µM |  | 24.7 µM | 23.6 µM | 43.2 µM |  |  |  |  |  |  |  |  |  |  |  |  |  |
| COc1ccc([C@H]2C=C(c3cc(F)c(Cl)cc3Cl)NC(=S)N2)cc1 | > 100 µM | > 100 µM | > 100 µM | > 100 µM | 66.5 µM | 48.6 µM | > 100 µM |  |  |  |  |  |  |  |  |  |  |  |  |  |
| CC(C)=CCC[C@](C)(O[C@@H]1O[C@H](CO)[C@@H](O)[C@H](O)[C@H]1O)[C@H]1CC[C@]2(C)[C@@H]1[C@H](O)C[C@@H]1[C@@]3(C)CC[C@H](O)C(C)(C)[C@@H]3[C@@H](O[C@@H]3O[C@H](CO)[C@@H](O)[C@H](O)[C@H]3O)C[C@]12C | > 100 µM | > 100 µM | > 100 µM | > 100 µM | > 100 µM | > 100 µM | > 100 µM |  |  |  |  |  |  |  |  |  |  |  |  |  |
| COc1cc2c(cc1Oc1ccc(OC)c3c1CC1c4c(cc(OC)c(OC)c4-3)CCN1C)CC1c3c(cc(OC)c(OC)c3-2)CCN1C (stereo unspecified) |  | 12.4 µM |  | 32.5 µM | 10.1 µM | 2.95 µM |  |  | 3.37 µM | 23.8 µM | 7.06 µM | 4.29 µM | 20.2 µM |  |  |  |  |  |  |  |
| O=c1cc(O)c2ccccc2o1 | > 100 µM | > 100 µM | > 100 µM | > 100 µM | > 100 µM | > 100 µM | > 100 µM |  |  |  |  |  |  |  |  |  |  |  |  |  |
| Cn1c(Sc2ccc(-c3cccnc3)n2C)ccc1-c1cccnc1 | 9.76 µM | 28.1 µM | 9.79 µM | 36 µM | 46.9 µM | 38 µM | 43.5 µM |  |  |  |  |  |  |  |  |  |  |  |  |  |
| CCOC(=O)CCC(C(=O)OCC)n1nnc2ccc(Nc3c(C)[n+]([O-])c4cc(Cl)ccc4[n+]3[O-])cc21 (stereo unspecified) | > 100 µM | 38.7 µM | > 100 µM | > 100 µM | > 100 µM | 35.7 µM | > 100 µM |  |  |  |  |  |  |  |  |  |  |  |  |  |
| COc1cc(O)c2c(c1)C(=O)c1cc(C)cc(O)c1C2=O |  |  | > 100 µM | > 100 µM | > 100 µM | > 100 µM |  |  | > 100 µM | > 100 µM |  |  | > 100 µM | > 100 µM | > 100 µM |  |  |  |  |  |
| CCOC(=O)NC | > 100 µM | > 100 µM | > 100 µM | > 100 µM | > 100 µM | > 100 µM | > 100 µM |  |  |  |  |  |  |  |  |  |  |  |  |  |
| Cc1c2cccc-2ccc2c1[nH]c1ccc(Br)cc12 | 94.3 µM | 9.94 µM | > 100 µM | 20.1 µM | 7.89 µM | 4.33 µM | 27.5 µM |  |  |  |  |  |  |  |  |  |  |  |  |  |
| Nc1nnc(N)n1NC(=O)C(=O)Nc1ccc([N+](=O)[O-])cc1 |  | > 100 µM | > 100 µM | > 100 µM | > 100 µM | > 100 µM |  |  | > 100 µM | > 100 µM | > 100 µM | > 100 µM | > 100 µM |  | > 100 µM |  |  |  |  |  |
| NNc1ccccc1Cl | > 100 µM | > 100 µM |  | > 100 µM | > 100 µM | > 100 µM | > 100 µM |  |  |  |  |  |  |  |  |  |  |  |  |  |
| Nc1ccc(Nc2c3ccccc3nc3ccccc23)cc1 | > 10 µM |  | > 10 µM | > 10 µM |  | > 10 µM | > 10 µM |  |  |  |  |  |  |  |  |  |  |  |  |  |
| O=C(O)C1=NNC(C(=O)O)=NN1 |  | > 100 µM |  |  | > 100 µM | > 100 µM | > 100 µM |  | > 100 µM | > 100 µM | > 100 µM |  | > 100 µM | > 100 µM |  |  |  |  |  |  |
| O=C1c2ccccc2C(=O)c2c1ccc(C(=O)O)c2-c1ccc2ccccc2c1 | 80.7 µM |  | 51.6 µM | > 100 µM |  | 30.1 µM | > 100 µM |  |  |  |  |  |  |  |  |  |  |  |  |  |
| Cc1cc(=O)oc2c1cc(OCC(=O)OCCN1CCCCC1)c1occ(C)c12 |  | > 100 µM |  |  | > 100 µM |  | > 100 µM |  | > 100 µM | > 100 µM | > 100 µM | > 100 µM | > 100 µM | > 100 µM | > 100 µM |  |  |  |  |  |
| CC(CO)(CO)Nc1ncnc2ccccc12 | > 100 µM | > 100 µM | > 100 µM | > 100 µM | > 100 µM |  | > 100 µM |  |  |  |  |  |  |  |  |  |  |  |  |  |
| NC(=O)Nc1cc(O)ccc1N=Nc1ccc(S(=O)(=O)Nc2ccccn2)cc1 |  | > 100 µM |  | > 100 µM | > 100 µM | > 100 µM |  |  | > 100 µM | > 100 µM | > 100 µM | > 100 µM | > 100 µM | > 100 µM | > 100 µM |  |  |  |  |  |
| C[n+]1ccc(-c2cc[n+](C)cc2)cc1 |  | > 63.6 µM | > 31.6 µM | 66.5 µM | 99.8 µM | > 38.3 µM | > 100 µM |  | > 21.6 µM | > 100 µM | > 38.5 µM | 17 µM | > 58.4 µM | > 53.3 µM | > 24.7 µM |  |  |  |  |  |
| Fc1ccc(-c2nnc3sc(COc4ccccc4Cl)nn23)cc1Cl | 91.6 µM | > 100 µM | 76.4 µM | > 100 µM | > 100 µM | > 100 µM |  | 49.5 µM |  |  |  |  |  |  |  | 35.2 µM | 30.4 µM | 47.3 µM | 43.7 µM | 23.3 µM |
| CC[C@H](C)C1=C(O)[N@+]2([O-])Oc3ccc(-c4c(O)c(O)c(-c5ccc(OC(C)=O)cc5)c(OC(C)=O)c4OC(C)=O)cc3O[C@]2([C@@H](C)CC)C(=O)N1O | > 50 µM | 45.8 µM | 33 µM | > 50 µM |  | > 50 µM | > 50 µM |  |  |  |  |  |  |  |  |  |  |  |  |  |
| CC1(O)CC23CC1CCC2(C)C12CCCC(C)(C(=O)O1)C2CC3O (stereo unspecified) | > 100 µM | > 100 µM | > 100 µM |  | > 100 µM | > 100 µM | > 100 µM |  |  |  |  |  |  |  |  |  |  |  |  |  |
| COc1c(Cl)cc(S(=O)O)cc1Cl |  |  |  | > 100 µM | > 100 µM |  |  |  | > 100 µM |  |  | > 100 µM | > 100 µM | > 100 µM | > 100 µM |  |  |  |  |  |
